Drawing on patent US20050107400A1, “Use of pyrazolopyridines as therapeutic compounds” (priority 2001, published 2005), this text covers IC50 for 26 molecules.

The term IC50 denotes the concentration needed to halve the response being measured.

The structures appear in SMILES notation.

In the assay the test system is HSV-1. The assay can be described thus: HSV-1 replication in infected Vero 76 cells, DNA hybridization capture assay. Format: cell-based, herpes simplex virus 1. The following applies: Human alphaherpesvirus 1; HSV-1 in Vero 76 cells, MOI=0.001, 40-48 hours at 37° C.; read-out: IC50. As to the method: a) Tissue Culture and HSV Infection.
Vero 76 cells were maintained in MEM with Earle's salts, L-glutamine, 8% FBS (Hyclone, A-1111-L) and 100 units/mL Penicillin-100 μg/mL Streptomycin. For assay conditions, FBS was reduced to 2%. Cells are seeded into 96-well tissue culture plates at a density of 5×10^4 cells/well after being incubated for 45 min at 37° C. in the presence of HSV-1 or HSV-2 (MOI=0.001). Test compounds are added to the wells and the plates are incubated at 37° C. for 40-48 hours. Cell lysates are prepared as follows: media was removed and replaced with 150 μL/well 0.2 N NaOH with 1% Igepal CA 630 or NP-40. Plates were incubated up to 14 days at room temperature in a humidified chamber to prevent evaporation.
(b) Preparation of Detection DNA.
For the detection probe, a gel-purified, digoxigenin-labeled, […] PCR fragment of the HSV UL-15 sequence was utilized. PCR conditions included 0.5 μM primers, 180 μM dTTP, 20 μM dUTP-digoxigenin (Boehringer Mannheim 1558706), 200 μM each of dATP, dCTP, and dGTP, 1×PCR Buffer II (Perkin Elmer), 2.5 mM MgCl2, 0.025 units/μL of AmpliTaq Gold polymerase (Perkin Elmer), and 5 ng of gel-purified HSV DNA per 100 μL Extension conditions were 10 min at 95° C., followed by 30 cycles of 95° C. for 1 min, 55° C. for 30 sec, and 72° C. for 2 min. The amplification was completed with a 10-min incubation at 72° C. Primers were selected to amplify a 728 bp probe spanning a section of the HSV1 UL15 open reading frame (nucleotides 249-977). Single-stranded transcripts were purified with Promega M13 Wizard kits. The final product was mixed 1:1 with a mixture of 6 M GuSCN, 100 mM EDTA and 200 μg/mL herring sperm DNA and stored at 4° C.
(c) Preparation of Capture Plates.
The capture DNA plasmid (HSV UL13 region in pUC) was linearized by cutting with Xba I, denatured for 15 min at 95° C. and diluted immediately into Reacti-Bind DNA Coating Solution (Pierce, 17250, diluted 1:1 with TE buffer, pH 8) at 1 ng/μL. 75 μL/well were added to Corning (#3922 or 9690) white 96-well plates and incubated at room temperature for at least 4 hrs before washing twice with 300 μL/well 0.2×SSC/0.05% Tween-20 (SSC/T buffer). The plates were then incubated overnight at room temperature with 150 μL/well 0.2 N NaOH, 1% IGEPAL and 10 μg/mL herring sperm DNA.
Twenty-seven (27) μL of cell lysate was combined with 45 μL of hybridization solution (final concentration: 3M GuSCN, 50 mM EDTA, 100 μg/ml salmon sperm DNA, 5×Denhardt's solution, 0.25×APE, and 5 ng of the digoxigenin-labeled detection probe). APE is 1.5 M NH4-acetate, 0.15 M NH4H2 phosphate, and 5 mM EDTA adjusted to pH 6.0. Mineral oil (50 μL) was added to prevent evaporation. The hybridization plates were incubated at 95° C. for 10 minutes to denature the DNA, then incubated at 42° C. overnight. The wells were washed 6× with 300 μL/well SSC/T buffer then incubated with 75 μL/well anti-digoxigenin-HRP-conjugated antibody (Boehringer Mannheim 1207733, 1:5000 in TE) for 30 min at room temperature. The wells were washed 6× with 300 μL/well with PBS/0.05% Tween-20 before 75 μL/well SuperSignal LBA substrate (Pierce) was added. The plates were incubated at room temperature for 30 minutes and chemiluminescence was measured in a Wallac Victor reader.
The following results were obtained for HSV-1.
Turning to `CN(C)C(=O)c1ccc2c(-c3ccnc(NC4CC4)n3)c(-c3ccc(F)cc3)nn2c1` [Example 47, 3-[2-(Cyclopropylamino)-4-pyrimidinyl]-2-(4-fluorophenyl)-N,N-dimethylpyrazolo[1,5-a]pyridine-6-carboxamide], the IC50 was found to be 1 µM.

`O=C(NC1CC1)c1ccc2c(-c3ccnc(NC4CC4)n3)c(-c3ccc(F)cc3)nn2c1` [Example 48, N-Cyclopropyl-3-[2-(cyclopropylamino)-4-pyrimidinyl]-2-(4-fluorophenyl)pyrazolo[1,5-a]pyridine-6-carboxamide]: the IC50 turned out to be 0.9 µM.

Turning to `Fc1ccc(-c2nn3ccccc3c2-c2cc(-c3ccccc3)nc(NC3CCCC3)n2)cc1` [Example 49, N-Cyclopentyl-4-[2-(4-fluorophenyl)pyrazolo[1,5-a]pyridin-3-yl]-6-phenyl-2-pyrimidinamine], the IC50 turned out to be 2.9 µM.

In the case of `CCCCNc1nccc(-c2c(-c3ccc(F)cc3)nn3c(OCCF)cccc23)n1` [Example 57, N-Butyl-4-[7-(2-fluoroethoxy)-2-(4-fluorophenyl)pyrazolo[1,5-a]pyridin-3-yl]-2-pyrimidinamine], the IC50 amounted to 2.5 µM.

For the molecule `CSc1nccc(-c2c(-c3ccc(F)cc3)nn3c(OCC(F)(F)F)cccc23)n1` [Example 59, 2-(4-Fluorophenyl)-3-(4-(2-methylthio)pyrimidinyl)-7-(2,2,2-trifluoroethoxy)pyrazolo[1,5-a]pyridine], the IC50 stood at 10 µM.

Regarding `CCCCNc1nccc(-c2c(-c3ccc(F)cc3)nn3c(OCC(F)(F)F)cccc23)n1` [Example 60, N-Butyl-4-[2-(4-fluorophenyl)-7-(2,2,2-trifluoroethoxy)pyrazolo[1,5-a]pyridin-3-yl]-2-pyrimidinamine], the IC50 amounted to 5 µM.

`Fc1ccc(-c2nn3c(OCC(F)(F)F)cccc3c2-c2ccnc(NC3CC3)n2)cc1` [Example 62, N-Cyclopropyl-4-[2-(4-fluorophenyl)-7-(2,2,2-trifluoroethoxy)pyrazolo [1,5-a]pyridin-3-yl]-2-pyrimidinamine]: the IC50 was 2 µM.

On to `Fc1ccc(-c2nn3c(OCC(F)(F)F)cccc3c2-c2ccnc(NC3CCCCC3)n2)cc1` [Example 64, N-Cyclohexyl-4-[2-(4-fluorophenyl)-7-(2,2,2-trifluoroethoxy)pyrazolo[1,5-a]pyridin-3-yl]-2-pyrimidinamine], for which the IC50 was 0.9 µM.

With `COc1nccc(-c2c(-c3ccc(F)cc3)nn3c(OCC(F)(F)F)cccc23)n1` [Example 66, 2-(4-Fluorophenyl)-3-(4-(2-methyloxy)pyrimidinyl)-7-(2,2,2-trifluoroethoxy)pyrazolo[1,5-a]pyridine], the IC50 turned out to be 25 µM.

As to `Fc1ccc(-c2nn3c(OCC(F)(F)F)cccc3c2-c2ccnc(Oc3ccccc3)n2)cc1` [Example 67, 2-(4-Fluorophenyl)-3-(4-(2-phenyloxy)pyrimidinyl)-7-(2,2,2-trifluoroethoxy)pyrazolo[1,5-a]pyridine], the IC50 amounted to 15 µM.

Take `Fc1ccc(-c2nn3c(OCC(F)(F)F)cccc3c2-c2ccnc(OCC(F)(F)F)n2)cc1` [Example 68, 2-(4-Fluorophenyl)-3-(4-(2-(2,2,2-trifluoroethoxy))pyrimidinyl)-7-(2,2,2-trifluoroethoxy)pyrazolo[1,5-a]pyridine]: the IC50 was found to be 15 µM.

Turning to `Cc1c(C(=O)NC2CC2)ccc2c(-c3ccnc(NC4CCCC4)n3)c(-c3ccc(F)cc3)nn12` [Example 83, 3-[2-(Cyclopentylamino)-4-pyrimidinyl]-N-cyclopropyl-2-(4-fluorophenyl)-7-methylpyrazolo[1,5-a]pyridine-6-carboxamide], the concentration for half-maximal inhibition (IC50) is 1 µM.

Take `CCCCNc1nccc(-c2c(-c3ccc(F)cc3)nn3c(CCCC)cccc23)n1` [Example 84, N-Butyl-4-[7-butyl-2-(4-fluorophenyl)pyrazolo[1,5-a]pyridin-3-yl]-2-pyrimidinamine]: the IC50 is 0.6 µM.

As to `CCCCNc1nccc(-c2c(-c3ccc(F)cc3)nn3c(C)cccc23)n1` [Example 85, N-Butyl-4-[2-(4-fluorophenyl)-7-methylpyrazolo[1,5-a]pyridin-3-yl]-2-pyrimidinamine], the IC50 is 1 µM.

Consider `CCCCCCCCc1cccc2c(-c3ccnc(NCCCC)n3)c(-c3ccc(F)cc3)nn12` [Example 86, N-Butyl-4-[2-(4-fluorophenyl)-7-octylpyrazolo[1,5-a]pyridin-3-yl]-2-pyrimidinamine], for which the IC50 worked out at 6 µM.

For the molecule `CCc1cccc2c(-c3ccnc(NC4CC4)n3)c(-c3ccc(F)cc3)nn12` [Example 87, N-Cyclopropyl-4-[7-ethyl-2-(4-fluorophenyl)pyrazolo[1,5-a]pyridin-3-yl]-2-pyrimidinamine], the IC50 amounted to 3 µM.

For the molecule `CN(C)C(=O)c1cccc2c(-c3ccnc(NC4CC4)n3)c(-c3ccc(F)cc3)nn12` [Example 88, Dimethyl 2-(4-fluorophenyl)-3-(4-(2-cyclopropylamino)pyrimidinyl)-7-pyrazolo[1,5-a]pyridinylcarboxamide], the IC50 was 15 µM.

In the case of `Fc1ccc(-c2nn3ccc(N4CCOCC4)cc3c2-c2ccnc(NC3CCCC3)n2)cc1` [Example 89, N-Cyclopentyl-4-[2-(4-fluorophenyl)-5-morpholin-4-ylpyrazolo[1,5-a]pyridin-3-yl]pyrimidin-2-amine], the half-inhibitory concentration (IC50) worked out at 3.6 µM.

With `CN(C)CCCNc1nccc(-c2c(-c3ccc(F)cc3)nn3cc(C(F)(F)F)ccc23)n1` [Example 90, N^1-{4-[2-(4-Fluorophenyl)-6-trifluoromethylpyrazolo[1,5-a]pyridin-3-yl]pyrimidin-2-yl}-N^3,N^3-dimethylpropane-1,3-diamine], the IC50 is 1.9 µM.

With `CCCCOc1cc(-c2c(-c3ccc(F)cc3)nn3ccccc23)ccn1` [Example 91, 3-(2-Butoxypyridin-4-yl)-2-(4-fluorophenyl)pyrazolo[1,5-a]pyridine], the IC50 was 11 µM.

For `COc1ccc(-c2nn3ccccc3c2-c2ccnc(NC3CCCC3)n2)c(OC)c1` [Example 92, N-Cyclopentyl-4-[2-(2,4-dimethoxyphenyl)pyrazolo[1,5-a]pyridin-3-yl]pyrimidin-2-amine], the IC50 is 20 µM.

For the molecule `Fc1ccc(-c2nn3ccc(Cl)cc3c2-c2nc(NC3CCCC3)ncc2Br)cc1` [Example 93, 5-Bromo-4-[5-chloro-2-(4-fluorophenyl)pyrazolo[1,5-a]pyridin-3-yl]-N-cyclopentyl pyrimidin-2-amine], the IC50 is 2.6 µM.

Take `COc1ccc(-c2nn3cc(C(F)(F)F)ccc3c2-c2ccnc(NC3CC3)n2)cc1` [Example 95, N-Cyclopropyl-4-[2-(4-methoxyphenyl)-6-(trifluoromethyl)pyrazolo[1,5-a]pyridin-3-yl]pyrimidin-2-amine]: the concentration for half-maximal inhibition (IC50) turned out to be 27 µM.

As for `CCOC(OCC)(OCC)c1ccc2c(-c3ccnc(NC4CC4)n3)c(-c3ccc(OC)cc3)nn2c1` [Example 96, N-Cyclopropyl-4-[2-(4-methoxyphenyl)-6-(triethoxymethyl)pyrazolo[1,5-a]pyridin-3-yl]pyrimidin-2-amine], the IC50 was found to be 5.5 µM.

With `CCOC(=O)c1ccc2c(-c3ccnc(NC4CC4)n3)c(-c3ccc(OC)cc3)nn2c1` [Example 97, Ethyl 3-[2-(cyclopropylamino)pyrimidin-4-yl]-2-(4-methoxyphenyl)-pyrazolo[1,5-a]pyridine-6-carboxylate], the IC50 stood at 16 µM.

With `COCCNC(=O)c1ccc2c(-c3ccnc(NC4CC4)n3)c(-c3ccc(OC)cc3)nn2c1` [Example 98, 3-[2-(Cyclopropylamino)pyrimidin-4-yl]-N-(2-methoxyethyl)-2-(4-methoxyphenyl)pyrazolo[1,5-a]pyridine-6-carboxamide], the IC50 came to 1.1 µM.
